These results are taken from patent US7479377B2, “Genetic construct intracellular monitoring system” (DiscoveRx Corporation, priority 2001, dated 2009).

Peptide text beside a SMILES is read from it. * marks the point of attachment. Cbz = O=C(OCc1ccccc1)*

One assay relates to IκB-ED. As to the kind of experiment: TNFα-induced IκB-ED degradation in HeLa cells (ED/EA complementation, chemiluminescence). Format: cell-based. The following applies: TNFα at various concentrations for 30 min. How it is done:
For transient transfection, cells were seeded into 6 well plate one day before experiment. For each well, 3 μl of Fugene 6 (Roche, Ind.) was diluted into 100_μl of serum free medium, and then 1_μg of plasmid DNA was added. The mixture was incubated at room temperature for 15 min before addition into wells dropwise. The plate was then incubated at 37° C. till the assay.
(§1) HeLa cells were seeded into 24 well plate 24 hr before transfection. 0.25 μg DNA was transfected into each well using Fugene6 (Roche) following manufacture's protocol. 24 hr after transfection, cells were subjected to treatment of TNFα (Sigma) at various concentrations for 30 min. Then the culture medium was removed, and cells were lysed in 90 μl of cell lysis buffer. […] Assay was performed in three replicates. The plate was incubated at room temperature for 30 min before addition of 15 μl chemiluminescence substrate. Plate was read 30 min after substrate addition. The untreated cells were normalized to 100% activity. […] In addition, the IκB-ED degradation was specifically linked to the upstream component activation. Also confirmed was that the IκB-ED degradation was dependent on IκB phosporylation at 32 and 36 residues, the same way as un-tagged IκB.

The target in another assay is T1, endogenous IL-1 receptor (Homo sapiens, UniProt P14778).
T1 construct: endogenous in cells; host or cells: HeLa cells transiently transfected with pCMV-IkB-ED or pCMV-IkB M-ED as reporter
T1 sequence (P14778 18-569): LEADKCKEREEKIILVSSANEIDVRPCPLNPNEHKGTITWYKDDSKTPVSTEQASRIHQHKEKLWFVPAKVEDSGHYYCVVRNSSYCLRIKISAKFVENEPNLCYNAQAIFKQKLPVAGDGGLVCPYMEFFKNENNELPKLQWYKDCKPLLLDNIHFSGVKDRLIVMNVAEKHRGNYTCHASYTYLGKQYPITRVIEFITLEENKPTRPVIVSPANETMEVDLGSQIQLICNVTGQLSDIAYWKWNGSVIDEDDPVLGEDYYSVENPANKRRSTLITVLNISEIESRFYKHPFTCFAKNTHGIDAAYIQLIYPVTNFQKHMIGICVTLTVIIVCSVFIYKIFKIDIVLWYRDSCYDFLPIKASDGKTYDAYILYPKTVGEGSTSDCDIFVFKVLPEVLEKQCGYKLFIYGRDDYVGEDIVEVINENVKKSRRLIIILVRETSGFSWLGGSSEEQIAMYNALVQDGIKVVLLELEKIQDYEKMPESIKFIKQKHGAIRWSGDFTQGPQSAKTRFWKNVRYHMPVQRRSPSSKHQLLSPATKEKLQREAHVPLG
T1 sequence (Q9NPH3 21-570 partner): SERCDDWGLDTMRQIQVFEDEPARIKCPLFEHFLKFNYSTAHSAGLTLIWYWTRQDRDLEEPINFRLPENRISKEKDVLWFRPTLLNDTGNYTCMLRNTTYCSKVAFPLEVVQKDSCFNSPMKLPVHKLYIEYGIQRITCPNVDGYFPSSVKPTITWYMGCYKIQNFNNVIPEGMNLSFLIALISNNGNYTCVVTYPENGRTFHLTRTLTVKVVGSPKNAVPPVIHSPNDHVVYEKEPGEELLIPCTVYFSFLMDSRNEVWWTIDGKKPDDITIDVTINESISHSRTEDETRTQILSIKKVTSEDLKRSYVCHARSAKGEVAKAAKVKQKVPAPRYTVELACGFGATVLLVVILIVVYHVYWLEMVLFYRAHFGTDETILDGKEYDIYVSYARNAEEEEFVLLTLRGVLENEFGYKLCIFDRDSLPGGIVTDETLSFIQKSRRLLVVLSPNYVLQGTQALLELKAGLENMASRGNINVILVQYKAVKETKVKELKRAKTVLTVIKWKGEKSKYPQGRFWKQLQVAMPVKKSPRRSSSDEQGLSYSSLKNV
The assay is described as follows: IL-1-induced IκB-ED degradation in HeLa cells. Format: cell-based. The note with it: IL-1 at various concentrations for 30 min. How it is done:
as §1
It has been reported that IL-1 activation of cells results in NF-κB pathway activation through the induced degradation of IκB. To confirm that the ED labeled IκB in cells was able to monitor IL-1 pathway activation, HeLa cells was transiently transfected with pCMV- IκB -ED or pCMV- IκB M-ED the same way as described above in 24 well plates. Cells were then treated with IL-1 (Sigma) at various concentrations for 30 min then assayed for ED activity.

For the next assay, the system named is PL-PPARγ1. The assay is described as follows: Proteosomal degradation of transiently expressed PL-PPAR (ED-EA complementation). Format: cell-based, human. The note with it: for Amount of PL-PPARγ1: MG132 20 μM. From the text: pcDNA3.1-PL-PPAR construct was obtained in the two rounds of the cloning procedure. In the first round, the ED (55-mer) sequence was inserted into NheI and KpnI sites of the pcDNA3.1/zeo vector (Invitrogen). PPARg1 gene was obtained by PCR amplification of the human placenta cDNA library and in the second round of cloning was inserted into KpnI and NotI sites of the vector.
Proteosomal degradation of transiently expressed PL-PPAR protein was detected in NIH3T3, ECV304 and HeLa cells. Cells were transfected with pcDNA3.1-PL-PPAR and 24 hours after transfection medium was removed and cells were treated either with the vehicle (DMSO) or MG132 (proteosome inhibitor). Transfections were carried out in 6-well plates as described above. Cells were washed with PBS buffer, lysed in 480 uL of lysis buffer containing CHAPS (a mild detergent) and tested for ED-EA complementation in triplicates. Thirty microliters of the cell lysates were placed in the wells of 384-well plates. After that, 10 uL of EA solution were added and reaction of complementation was carried out for one hour at room temperature. Fifteen microliters of chemiluminescent substrate (0.4 mM Galacton-Star (Applied Biosystems, Bedford, Mass.) and 2 mg/ml Emerald II substrate (Applied Biosystems, Bedford, Mass.)) were added to the wells and the chemiluminescent signals were read using Chemiluminescent reader (Packard LumiCount, Packard Biosystems) (FIGS. 10A, 10B and 10C).
PL-PPAR expression levels were tested in the presence of increasing concentrations of MG132 (FIG. 11). The experiment was done as described above, except that indicated concentrations of MG132 were employed.

The target in assay [1] is T2, human chemokine CCR3 receptor (Homo sapiens, UniProt P51677).
T2 sequence (P51677 1-355): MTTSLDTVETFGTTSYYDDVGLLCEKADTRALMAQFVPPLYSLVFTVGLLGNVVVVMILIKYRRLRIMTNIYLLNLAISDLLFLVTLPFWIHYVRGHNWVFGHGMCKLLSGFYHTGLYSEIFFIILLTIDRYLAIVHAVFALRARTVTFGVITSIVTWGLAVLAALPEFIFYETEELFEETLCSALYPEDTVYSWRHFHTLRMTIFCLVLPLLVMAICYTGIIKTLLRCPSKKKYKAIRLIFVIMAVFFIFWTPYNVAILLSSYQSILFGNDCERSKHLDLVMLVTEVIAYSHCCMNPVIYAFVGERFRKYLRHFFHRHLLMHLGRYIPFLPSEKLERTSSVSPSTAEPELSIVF
The assay is described as follows: CCR3 activation leads to IkB-PL degradation in CHO-K1 cells. The assay is classed as cell-based. The note with it: CHO-K1 cells expressing CCR3, transfected with PCMV-IkB-PL; 30 min; FIG. 16. How it is done: CHO-K1 cells stably expressing human chemokine CCR3 receptor was obtained from Euroscreen. […] Cells were seeded in 6-well plates one day before transfection. PCMV-IkB-PL was transiently transfected into CHO MC4 cells using Fugene6 following manufacturer's protocol. […] (FIG. 16).

Assay [2] deals with Hela cells stably expressing IkB-PL. The assay is described as follows: Cell Titer-Glo cell viability assay of Hela-IkB cells with EGF. The following applies: 0.5% FBS, serial dosage of rhEGF, 72 hours, FIG. 17. Format: cell-based. How it is done:
Hela cells stably expressing IkB-PL were used. To confirm the cells response to EGF, the cell viability assay was performed. Hela-IkB cells were seeded in DMEM with 0.5% FBS in 96 well plate with a density of 5000 cells per well, exposing to a serial dosage of rhEGF. 72 hours later, cell viability assay was performed using the Cell Titer-Glo luminescence Cell Viability assay kit (Promega). […] (FIG. 17).

Setting [3] is: HeLa cells transfected with pCMV-IκB M-ED.
Where [4] appears, read: HeLa cells transfected with pCMV-IκB-ED.

In the case of TNFα, the “ED activity of mutant IκB M-ED” value in the assay with IκB-ED (setting [3]) is given as “did not show a dose dependent decrease of ED activity”. For the same compound, the “ED activity of IκB-ED (degradation of wild type IκB)” value with IκB-ED (setting [4]) is “decrease the ED activity in a dose dependent manner”.

IL-1: the “Degradation of mutant IκB M-ED” value on endogenous IL-1 receptor (setting [3]) is on record as “resistant to IL-1 induced degradation”. Moreover, the IκB-ED activity entry on endogenous IL-1 receptor (setting [4]) is given as “decreased upon IL-1 treatment in a dose dependent manner”.

Regarding `CC(C)C[C@@H](C=O)NC(=O)[C@H](CC(C)C)NC(=O)[C@H](CC(C)C)NC(=O)OCc1ccccc1` [MG132] (Cbz-Leu-Leu-Leu-aldehyde), the “Amount of PL-PPARγ1” value in the assay on PL-PPARγ1 (ECV304 cells, FIG. 10B) is on record as “enhancement of the amount of PL-PPARγ1”; in the assay on PL-PPARγ1 (HeLa cells, FIG. 10C), “enhancement of the amount of PL-PPARγ1”; with PL-PPARγ1 (NIH3T3 cells, FIG. 10A), “enhancement of the amount of PL-PPARγ1”. Moreover, the “PL-PPAR expression level with increasing concentrations of MG132” value with PL-PPARγ1 (increasing concentrations of MG132, FIG. 11) is on record as “Dose-Dependent Increase”.

For the compound eotaxin, in assay [1], the “IkB-PL degradation upon CCR3 activation” value is “activation of the chemokine receptor CCR3 leading to IkB-PL degradation”.

Regarding “EGF (NSDSECPLSHDGYCLHDGVCMYIEALDKYACNCVVGYIGERCQYRDLKWWELR)”, the Viable cell numbers entry in assay [2] was “responded to the EGF induction in a dosage dependent manner”.
